Measurements reported in US5389634A, “Imidazole derivatives having angiotensin II receptor antagonistic activity” (Roussel-Uclaf, priority 1990, dated 1995).

Assays:
[1] = test system: angiotensin II on the isolated portal vein; assay: Antagonistic activity of angiotensin II on the isolated portal vein; format: cell-based, male Wistar rats; conditions: isolated rat portal vein, angiotensin II 3.10^-8 M, compound 15 minutes before stimulation, 37° C.; read-out: IC50 (concentration which produced a 50% inhibition of the response to angiotensin)
Method: The portal vein of male Wistar rats weighing about 350 g (IFFA Credo France) was removed after cervical dislocation and placed rapidly in a physiological solution (see below) at ambient temperature. A ring of about 1 mm was mounted in a bath having an isolated organ containing 20 ml of the following physiological solution (composition in mM: NaCl 118.3-KCl […]-MgSO4 1.2-KH2 PO4 1.2-NaHCO3 25-glucose 11.1-CaCl2 2.5). The medium was maintained at 37° C. and oxygenated with an O2 (95%), CO2 (5%) mixture. The initial pressure imposed was 1 g, the rings were left at rest for 60 to 90 minutes. To avoid spontaneous contractions, verapamil was added to the incubation bath (1.10^-6 M).
At the end of the rest period, angiotensin II (Ciba hypertensin) 3.10^-8 M was added to the incubation bath and left in contact with the preparation for 1 minute. This operation was repeated every 30 minutes with the tissue being washed 3 or 4 times between two stimulations by angiotensin. The compound to be studied was introduced into the bath 15 minutes before a new stimulation by angiotensin. From increasing concentrations of the molecule being applied, an IC50 (concentration which produced a 50% inhibition of the response to angiotensin) can be calculated, this being expressed in nanomoles.

angiotensin II receptor = molecular target: T1, angiotensin II receptor (Rattus norvegicus, UniProt P25095); assay: Test on the angiotensin II receptor (displacement of I^125 angiotensin II on rat liver membrane preparation); format: binding; conditions: 25° C., 150 minutes, pH 7.4, read-out: IC50 (50% inhibiting concentration, displacement of specific radioactivity fixed on the receptor)
T1 construct: A fresh membrane preparation obtained from the liver of a rat was used; from tissue; host or cells: rat liver membranes
T1 sequence (P25095 1-359): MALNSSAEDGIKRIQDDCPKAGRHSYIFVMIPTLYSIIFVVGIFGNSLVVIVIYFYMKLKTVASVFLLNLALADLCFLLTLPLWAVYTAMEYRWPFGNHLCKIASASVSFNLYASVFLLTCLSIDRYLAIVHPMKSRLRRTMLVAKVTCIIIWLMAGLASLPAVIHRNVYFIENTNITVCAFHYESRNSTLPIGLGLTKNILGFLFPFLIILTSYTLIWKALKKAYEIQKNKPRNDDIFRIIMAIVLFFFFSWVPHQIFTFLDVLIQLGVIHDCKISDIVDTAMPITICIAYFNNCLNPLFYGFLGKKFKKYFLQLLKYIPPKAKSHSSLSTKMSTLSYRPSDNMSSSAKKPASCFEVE
Method: A fresh membrane preparation obtained from the liver of a rat was used and the tissue was ground up in a polytron in a Tris 50 mM buffer pH 7.4. The grinding was followed by 3 centrifugations at 30,000 g for 15 minutes and the deposits were taken up in between in the Tris buffer pH 7.4. The last deposits were suspended in an incubation buffer (Tris 20 mM, NaCl 135 mM, KCl 10 mM, glucose 5 mM, MgCl2 10 mM PMSF 0.3 mM, bacitracin 0.1 mM, BSA 0.2%) The aliquoted fractions of 2 ml were divided into hemolysis tubes and I^125 angiotensin II (25,000 DPM per tube) and the product to be studied were added. The product was first tested at 3×10^-5 M three times. When the tested product displaced by more than 50% the radioactivity linked specifically to the receptor, it was tested again according to a range of 7 concentrations to determine the concentration which inhibited by 50% the radioactivity linked specificaly to the receptor. In this way, the 50% inhibiting concentration was determined.
The non-specific bond was determined by addition of the product of Example 94 of European Patent No. 0,253,310, at 10^-5 M (three times). The medium was incubated at 25° C. for 150 minutes, put in a water bath at 0° C. for 5 minutes, filtered under vacuum, rinsed with Tris buffer pH 7.4 and the radioactivity was counted in the presence of scintillating Triton. The results were expressed directly as the 50% inhibiting concentration (IC50), that is as the concentration of studied product, expressed in nM, necessary to displace 50% of the specific radioactivity fixed on the receptor studied.

| SMILES | IC50 [1] [nM] | IC50 (angiotensin II receptor) [nM] |
| --- | --- | --- |
| CCCCc1nc2ccncc2n1Cc1ccc(C(=O)O)cc1 [Example 20, 4-((2-butyl-3H-imidazo(4,5-c)pyridin-3-yl)-methyl) benzoic acid] | – | 2720 |
| CCCCc1nc2ccccc2n1Cc1ccc(C(=O)Nc2cccc3[nH]ccc23)cc1 [Example 6, 4-((2-butyl-1H-benzimidazol-1-yl)-methyl)-N-(1H-indol-4-yl) benzamide] | – | 3460 |
| CCCCc1nc2cscc2n1Cc1ccc(-c2ccccc2C(=O)O)cc1 [Example 34, 4'-((2-butyl-1H-thieno-(3,4-d)-imidazol-1-yl)-methyl)-(1,1'-biphenyl)-2-carboxylic acid] | – | 789 |
| CCCCc1nc2cc3ccccc3cc2n1Cc1ccc(C(=O)O)cc1 [Example 10, 4-((2-butyl-1H-naphth(2,3-d)imidazol-1-yl)-methyl) benzoic acid] | 3280 | 2270 |
| CCCCc1nc2ccc(C(=O)O)cc2n1Cc1ccc(C(=O)O)cc1 [Example 2, 2-Butyl-1-((4-carboxyphenyl)-methyl)-1H-benzimidazol-6-carboxylic acid] | 3400 | 2350 |

Other lines, results leading:

| IC50 [1] [nM] | IC50 (angiotensin II receptor) [nM] | SMILES |
| --- | --- | --- |
| 830 | – | CCCCc1nc2cccnc2n1Cc1ccc(C(=O)O)cc1 [Example 25] |
| 3600 | 1440 | CCCCc1nc2ccccc2n1Cc1ccc(C(=O)O)cc1 [Example 5, 4-((2-butyl-1H-benzimidazol-1-yl)-methyl) benzoic acid] |
| – | 3610 | CCCCc1nc2cc(C)c(C)cc2n1Cc1ccc(C(=O)O)cc1 [Example 15, 4-((2-butyl-5,6-dimethyl-1H-benzimidazol-1-yl)-methyl) benzoic acid] |
| – | 89 | CCCCc1nc2ncccc2n1Cc1ccc(-c2ccccc2C(=O)O)cc1 [Example 27, 4'-((2-butyl-1H-imidazo-(4,5-b)-pyridin-1-yl)-methyl)-(1,1'-biphenyl)-2-carboxylic acid] |
